Assays:
Assay type in all cases: biochemical
aryl sulfatase A (ARSA) = biological target: T1, aryl sulfatase A (ARSA) (Homo sapiens, UniProt P15289); test: ARSA inhibition assay with 4-MUS substrate; settings: 1 mM compound; 4-MUS substrate; means of two or more determinations; read-out: ARSA% inh @ 1 mM
T1 construct: purchased R & D Systems
T1 sequence (P15289 19-507): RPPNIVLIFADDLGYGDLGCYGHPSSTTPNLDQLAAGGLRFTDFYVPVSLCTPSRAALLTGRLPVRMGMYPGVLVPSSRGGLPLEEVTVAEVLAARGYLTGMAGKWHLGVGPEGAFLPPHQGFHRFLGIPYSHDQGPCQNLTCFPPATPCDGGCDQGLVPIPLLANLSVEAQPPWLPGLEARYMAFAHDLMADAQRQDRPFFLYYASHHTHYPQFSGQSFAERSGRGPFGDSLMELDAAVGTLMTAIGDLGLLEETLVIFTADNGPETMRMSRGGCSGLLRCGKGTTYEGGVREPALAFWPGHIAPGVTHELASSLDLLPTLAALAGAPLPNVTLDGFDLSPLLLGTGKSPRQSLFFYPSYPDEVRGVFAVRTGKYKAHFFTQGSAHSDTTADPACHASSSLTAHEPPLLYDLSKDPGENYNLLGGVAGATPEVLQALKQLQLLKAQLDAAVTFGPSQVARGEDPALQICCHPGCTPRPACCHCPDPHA
Description: (§1) Compounds were assayed for their ability to inhibit the Sulf-2-catalysed desulfation of 4-methylumbelliferyl sulfate (4-MUS) to the fluorescent 4-methylumbelliferone (MU). To determine their sulfatase selectivity, inhibition of aryl sulfatases A (ARSA) and B (ARSB) was also assessed. To date no suitable benchmark inhibitors of these sulfatase have been reported. […] In the majority of cases the presence of a substituent on the B-ring was detrimental to Sulf-2 inhibition when compared with unsubstituted biphenyl sulfamate 76. Aminosulfates 54 and 62 and carboxylic acid 15 retained potency. […] Compounds 8, 10, 15, 50 and 51 were also relatively potent ARSA inhibitors. […] Aminosulfates 56 and 63 were the best Sulf-2 inhibitors lacking a trichloroethylsulfamate group.
(§2) 1 – Biological assay protocols […]
(§3) Omega data analysis software.
(§4) ARSA and ARSB assay protocols
(§5) Compounds were screened in a 96-well black plate (Sterilin) using 4-MUS as a substrate, using 50 μL reaction mixture containing 40 ng of the commercially available enzymes (ARSA or ARSB from R & D Systems), 50 mM HEPES (pH = 4.5), 10 mM CaCl2, 1 mM test compound (dissolved in DMSO; final concentration of DMSO in reaction = 2%), and H2O (45 μL). The assay mixture was incubated for 1 h at 37 °C, followed by addition of 5 μL of 4-MUS (Km = 1.6 mM for ARSA and 612 μM for ARSB), and incubation for a further 1 h at 37 °C. The reaction was stopped with 100 μL of 1 M Tris (pH = 10.5) and read at 460 nm following excitation at 355 nm in FLUOstar Omega plate reader (BMG Labtech) using Omega data analysis software.

aryl sulfatase B (ARSB) = biological target: T2, aryl sulfatase B (ARSB) (Homo sapiens, UniProt P15848); test: ARSB inhibition assay with 4-MUS substrate; settings: 1 mM compound; 4-MUS substrate; means of two or more determinations; read-out: ARSB% inh @ 1 mM
T2 construct: purchased R & D Systems
T2 sequence (P15848 37-533, species assumed): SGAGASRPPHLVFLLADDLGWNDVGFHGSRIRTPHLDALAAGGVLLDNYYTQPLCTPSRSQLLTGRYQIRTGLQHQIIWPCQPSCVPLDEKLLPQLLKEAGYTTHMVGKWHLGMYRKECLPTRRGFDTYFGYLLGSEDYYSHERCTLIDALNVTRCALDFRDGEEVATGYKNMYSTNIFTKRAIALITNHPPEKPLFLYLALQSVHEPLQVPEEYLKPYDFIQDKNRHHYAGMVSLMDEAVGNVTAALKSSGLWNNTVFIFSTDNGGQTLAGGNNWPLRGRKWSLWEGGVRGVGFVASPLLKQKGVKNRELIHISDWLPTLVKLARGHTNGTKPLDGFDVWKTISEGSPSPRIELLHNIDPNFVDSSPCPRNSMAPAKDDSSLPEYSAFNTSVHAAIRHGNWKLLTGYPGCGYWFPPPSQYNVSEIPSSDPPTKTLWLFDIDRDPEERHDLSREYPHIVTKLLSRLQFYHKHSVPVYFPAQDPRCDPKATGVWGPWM
Description: as §1, §2, §3, §4, §5

Sulf-2 = biological target: T3, Sulf-2 (Homo sapiens, UniProt Q8IWU5); test: Inhibition of Sulf-2-catalysed desulfation of 4-MUS to fluorescent MU; settings: 1 mM compound; 4-MUS substrate; means of two or more determinations; read-out: Sulf-2% inh @ 1 mM
T3 construct: host or cells: 293T cells, transiently transfected
T3 sequence (Q8IWU5 25-870): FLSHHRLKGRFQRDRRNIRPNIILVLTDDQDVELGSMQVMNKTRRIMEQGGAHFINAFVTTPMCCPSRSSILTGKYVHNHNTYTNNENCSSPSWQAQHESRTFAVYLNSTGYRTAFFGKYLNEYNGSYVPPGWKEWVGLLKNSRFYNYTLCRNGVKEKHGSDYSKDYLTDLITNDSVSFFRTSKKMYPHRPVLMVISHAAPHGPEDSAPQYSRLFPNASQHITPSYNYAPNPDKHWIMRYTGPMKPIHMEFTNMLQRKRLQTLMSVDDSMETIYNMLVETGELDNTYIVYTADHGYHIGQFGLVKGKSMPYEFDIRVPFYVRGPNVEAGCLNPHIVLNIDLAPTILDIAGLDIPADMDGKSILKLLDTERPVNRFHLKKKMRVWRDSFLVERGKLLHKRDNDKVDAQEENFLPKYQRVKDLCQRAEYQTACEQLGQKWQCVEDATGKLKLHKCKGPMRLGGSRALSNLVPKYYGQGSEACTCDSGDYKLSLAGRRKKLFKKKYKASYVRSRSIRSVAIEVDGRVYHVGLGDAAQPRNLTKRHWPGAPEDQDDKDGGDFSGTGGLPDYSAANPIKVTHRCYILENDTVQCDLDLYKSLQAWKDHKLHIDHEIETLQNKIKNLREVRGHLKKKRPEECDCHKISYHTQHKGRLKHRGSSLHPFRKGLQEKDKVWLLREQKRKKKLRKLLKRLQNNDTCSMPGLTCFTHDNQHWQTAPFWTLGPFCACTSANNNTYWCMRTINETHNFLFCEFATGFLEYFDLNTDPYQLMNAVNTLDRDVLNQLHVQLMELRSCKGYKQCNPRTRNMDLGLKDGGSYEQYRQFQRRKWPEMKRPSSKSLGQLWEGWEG
Description: as §1
1 – Biological assay protocols
Compounds were screened using 4-MUS as a substrate for Sulf-2 according to a protocol described by Morimoto-Tomita et al.1 Briefly 293T cells were transiently transfected with pcDNA3.1/Myc-His(-)-HSulf-2 DNA (Addgene) and TransIT-LT1 Transfection Reagent (Mirus) using a transfection mixture at the ratio 1:3 (µg DNA:
µL transfection reagent) in Opti-MEM I reduced serum medium (Gibco). Conditioned medium containing Sulf-2 was collected after 3 days and bound to HIS-Select Nickel affinity gel (Sigma) overnight at 4 °C. Beads were washed three times with washing buffer containing 50 mM HEPES (pH 7.5), 300 mM NaCl, 0.05% Tween 20, followed by washing once with washing buffer containing no tween. Beads were suspended in 50 mM Hepes (pH 7.5) and used in inhibition assays. 20 μL of bead slurry was incubated with 1 mM compound (in DMSO) plus 10X reaction buffer (500 mM HEPES pH 7.5, 100 mM CaCl2) for 1 h at 37 °C. The reaction was started by the addition of 20 μL of 20 mM 4-MUS (final concentration of 8 mM) and incubated at 37 °C for 1 h. The reaction was stopped with 100 μL 1 M Tris buffer (pH 10.4) and read at 460 nm following excitation at 355 nm in FLUOstar Omega plate reader (BMG Labtech) using Omega data analysis software. […]

Compound	inhibition at 1000 µM (aryl sulfatase A (ARSA)) [%]	inhibition at 1000 µM (aryl sulfatase B (ARSB)) [%]	inhibition at 1000 µM (Sulf-2) [%]
O=S(=O)(Nc1cccc(-c2ccccc2)c1)OCC(F)(F)F [Compound 82]	78	92	5
O=S(=O)(Nc1ccccc1)OCC(Cl)(Cl)Cl [Compound 83]	63	68	3

From PMC5477036, “Design and synthesis of biphenyl and biphenyl ether inhibitors of sulfatases” (Chemical Science, 2016)
